Like-named read-outs stand apart in the source and are kept apart here.
How the values were obtained:
F. trinervia PEPC = biological target: T1, F. trinervia PEPC (Flaveria trinervia, UniProt P30694); assay: biochemical; assay type: biochemical; details: C4 PEPC
T1 construct: the full-length ppcA gene of PEPC from F. trinervia (EMBL-Bank X61304); made in house; host or cells: Escherichia coli BL21(DE3)
T1 sequence (P30694 1-966): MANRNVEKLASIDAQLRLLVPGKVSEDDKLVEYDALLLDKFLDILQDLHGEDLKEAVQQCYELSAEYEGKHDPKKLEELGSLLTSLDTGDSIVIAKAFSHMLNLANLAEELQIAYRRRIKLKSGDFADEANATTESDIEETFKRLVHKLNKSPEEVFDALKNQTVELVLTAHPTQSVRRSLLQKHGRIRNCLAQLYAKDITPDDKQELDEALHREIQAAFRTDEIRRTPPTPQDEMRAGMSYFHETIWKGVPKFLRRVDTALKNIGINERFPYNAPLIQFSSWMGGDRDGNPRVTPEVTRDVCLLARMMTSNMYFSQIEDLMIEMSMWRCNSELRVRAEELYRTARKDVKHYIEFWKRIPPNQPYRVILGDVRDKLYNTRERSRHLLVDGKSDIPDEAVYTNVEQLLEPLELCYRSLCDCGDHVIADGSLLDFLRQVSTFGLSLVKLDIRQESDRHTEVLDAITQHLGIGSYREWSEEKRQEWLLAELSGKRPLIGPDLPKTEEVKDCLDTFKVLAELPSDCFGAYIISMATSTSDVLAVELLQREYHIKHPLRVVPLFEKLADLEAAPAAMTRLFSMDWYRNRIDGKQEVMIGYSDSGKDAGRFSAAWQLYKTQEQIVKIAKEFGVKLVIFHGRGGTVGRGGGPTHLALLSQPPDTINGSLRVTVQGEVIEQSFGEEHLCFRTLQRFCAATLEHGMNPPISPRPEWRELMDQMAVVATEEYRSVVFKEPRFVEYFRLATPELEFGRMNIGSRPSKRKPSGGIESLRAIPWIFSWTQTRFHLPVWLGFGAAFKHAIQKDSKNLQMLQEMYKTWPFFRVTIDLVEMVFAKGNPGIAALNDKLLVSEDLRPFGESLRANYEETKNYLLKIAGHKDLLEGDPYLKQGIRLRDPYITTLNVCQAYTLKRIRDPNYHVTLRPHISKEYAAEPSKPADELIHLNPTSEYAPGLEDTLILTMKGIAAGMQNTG

[1] = tested on: Escherichia coli K-12 MG1655; assay: Bacterial growth in microscale cultivation, E. coli; assay type: cell-based; details: relative to control; for activity at 0.1 µM / activity at 1 µM / activity at 10 µM: Escherichia coli
Outline: (§1)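 Inhibitors in DMSO were added to the medium, at a maximum of 400 μM for trans-chalcone and 100 μM for 2'-hydroxychalcone. Cultures were seeded at OD600 0.5, or 0.25 for B. subtilis, and growth was followed as 620 nm backscatter in a BioLector at 1200 rpm. Final backscatter, growth rate and lag phase were compared with DMSO controls.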

Bacillus subtilis 168 = assay: Bacterial growth in microscale cultivation, B. subtilis; assay type: cell-based; details: relative to control
Outline: as §1

[2] = tested on: Pseudomonas putida KT2440; assay: Bacterial growth in microscale cultivation, P. putida; assay type: cell-based; details: relative to control; for activity at 0.1 µM / activity at 1 µM / activity at 10 µM: Pseudomonas putida
Outline: as §1

## O=C(/C=C/c1ccc(O)c(O)c1)c1ccc(O)c(O)c1O [Compound 12, 2′,3′,4′,3,4-Pentahydroxy-chalcone]
F. trinervia PEPC
  lower IC50 value in comparison to 8–11: ~ 5 fold
F. trinervia PEPC; IC50 F. trinervia PEPC
  IC50: 600 ± 100 nM
[1]; MG1655, complex medium, 0.1 µM, read-out: Final Backscatter
  activity at 0.1 µM: 98.5%
[1]; MG1655, complex medium, 0.1 µM, read-out: Growth rate
  activity at 0.1 µM: 106%
[1]; MG1655, complex medium, 1 µM, read-out: Final Backscatter
  activity at 1 µM: 100%
[1]; MG1655, complex medium, 1 µM, read-out: Growth rate
  activity at 1 µM: 100%
[1]; MG1655, complex medium, 10 µM, read-out: Final Backscatter
  activity at 10 µM: 97.9%
[1]; MG1655, complex medium, 10 µM, read-out: Growth rate
  activity at 10 µM: 111%
[1]; MG1655, minimal medium, 0.1 µM, read-out: Final Backscatter
  activity at 0.1 µM: 99.7%
[1]; MG1655, minimal medium, 0.1 µM, read-out: Growth rate
  activity at 0.1 µM: 99.8%
[1]; MG1655, minimal medium, 1 µM, read-out: Final Backscatter
  activity at 1 µM: 98.5%
[1]; MG1655, minimal medium, 1 µM, read-out: Growth rate
  activity at 1 µM: 100%
[1]; MG1655, minimal medium, 10 µM, read-out: Final Backscatter
  activity at 10 µM: 101%
[1]; MG1655, minimal medium, 10 µM, read-out: Growth rate
  activity at 10 µM: 104%
[1]; complex medium, 0.1 µM
  Lag Phase: 108,5%
[1]; complex medium, 1 µM
  Lag Phase: 102,8%
[1]; complex medium, 10 µM
  Lag Phase: 111,4%
[1]; minimal medium, 0.1 µM
  Lag Phase: 99,0%
[1]; minimal medium, 1 µM
  Lag Phase: 102,0%
[1]; minimal medium, 10 µM
  Lag Phase: 95,1%
Bacillus subtilis 168; Bacillus subtilis, 168, complex medium, 0.1 µM, read-out: Final Backscatter
  activity at 0.1 µM: 93.5%
Bacillus subtilis 168; Bacillus subtilis, 168, complex medium, 0.1 µM, read-out: Growth rate
  activity at 0.1 µM: 96.7%
Bacillus subtilis 168; Bacillus subtilis, 168, complex medium, 1 µM, read-out: Final Backscatter
  activity at 1 µM: 93.9%
Bacillus subtilis 168; Bacillus subtilis, 168, complex medium, 1 µM, read-out: Growth rate
  activity at 1 µM: 104%
Bacillus subtilis 168; Bacillus subtilis, 168, complex medium, 10 µM, read-out: Final Backscatter
  activity at 10 µM: 90.6%
Bacillus subtilis 168; Bacillus subtilis, 168, complex medium, 10 µM, read-out: Growth rate
  activity at 10 µM: 109%
Bacillus subtilis 168; Bacillus subtilis, 168, minimal medium, 0.1 µM, read-out: Final Backscatter
  activity at 0.1 µM: 102%
Bacillus subtilis 168; Bacillus subtilis, 168, minimal medium, 0.1 µM, read-out: Growth rate
  activity at 0.1 µM: 123%
Bacillus subtilis 168; Bacillus subtilis, 168, minimal medium, 1 µM, read-out: Final Backscatter
  activity at 1 µM: 98.6%
Bacillus subtilis 168; Bacillus subtilis, 168, minimal medium, 1 µM, read-out: Growth rate
  activity at 1 µM: 113%
Bacillus subtilis 168; Bacillus subtilis, 168, minimal medium, 10 µM, read-out: Final Backscatter
  activity at 10 µM: 104%
Bacillus subtilis 168; Bacillus subtilis, 168, minimal medium, 10 µM, read-out: Growth rate
  activity at 10 µM: 115%
Bacillus subtilis 168; complex medium, 0.1 µM
  Lag Phase: 110,6%
Bacillus subtilis 168; complex medium, 1 µM
  Lag Phase: 102,7%
Bacillus subtilis 168; complex medium, 10 µM
  Lag Phase: 94,7%
Bacillus subtilis 168; minimal medium, 0.1 µM
  Lag Phase: 98,2%
Bacillus subtilis 168; minimal medium, 1 µM
  Lag Phase: 100,6%
Bacillus subtilis 168; minimal medium, 10 µM
  Lag Phase: 100,0%
[2]; KT2440, complex medium, 0.1 µM, read-out: Final Backscatter
  activity at 0.1 µM: 97.8%
[2]; KT2440, complex medium, 0.1 µM, read-out: Growth rate
  activity at 0.1 µM: 104%
[2]; KT2440, complex medium, 1 µM, read-out: Final Backscatter
  activity at 1 µM: 98.2%
[2]; KT2440, complex medium, 1 µM, read-out: Growth rate
  activity at 1 µM: 103%
[2]; KT2440, complex medium, 10 µM, read-out: Final Backscatter
  activity at 10 µM: 98.6%
[2]; KT2440, complex medium, 10 µM, read-out: Growth rate
  activity at 10 µM: 99.7%
[2]; KT2440, minimal medium, 0.1 µM, read-out: Final Backscatter
  activity at 0.1 µM: 92.5%
[2]; KT2440, minimal medium, 0.1 µM, read-out: Growth rate
  activity at 0.1 µM: 105%
[2]; KT2440, minimal medium, 1 µM, read-out: Final Backscatter
  activity at 1 µM: 93.6%
[2]; KT2440, minimal medium, 1 µM, read-out: Growth rate
  activity at 1 µM: 104%
[2]; KT2440, minimal medium, 10 µM, read-out: Final Backscatter
  activity at 10 µM: 99.3%
[2]; KT2440, minimal medium, 10 µM, read-out: Growth rate
  activity at 10 µM: 100%
[2]; complex medium, 0.1 µM
  Lag Phase: 103,3%
[2]; complex medium, 1 µM
  Lag Phase: 103,9%
[2]; complex medium, 10 µM
  Lag Phase: 105,9%
[2]; minimal medium, 0.1 µM
  Lag Phase: 108,8%
[2]; minimal medium, 1 µM
  Lag Phase: 106,1%
[2]; minimal medium, 10 µM
  Lag Phase: 100,0%

From PMC4893628, “Chalcone-based Selective Inhibitors of a C4 Plant Key Enzyme as Novel Potential Herbicides” (Scientific Reports, 2016)
